Measured values published in patent US10259808B2 (Genentech, Inc., priority 2015, dated 2019).
Counter-ions that a name gives are not always drawn.

Biological target: T1, RORc ligand binding domain (Homo sapiens, UniProt P51449)
T1 sequence (P51449 269-508 limits assumed): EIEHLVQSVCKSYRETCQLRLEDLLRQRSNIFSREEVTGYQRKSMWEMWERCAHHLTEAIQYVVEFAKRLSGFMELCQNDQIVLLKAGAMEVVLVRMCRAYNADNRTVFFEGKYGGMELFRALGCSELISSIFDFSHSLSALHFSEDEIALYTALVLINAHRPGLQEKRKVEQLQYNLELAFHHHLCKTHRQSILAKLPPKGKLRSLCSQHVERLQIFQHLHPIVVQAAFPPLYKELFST
Experiment: In vitro RORc ligand binding assay (25-[3H]hydroxycholesterol displacement)

| IC50 [nM] | Structure (SMILES) |
| --- | --- |
| 8 | C[C@H]1CC[C@H](c2ccccc2)S(=O)(=O)N1Cc1cc(F)c([C@]2(COc3cnccn3)C[C@](C)(O)C2)cc1F (racemic) [Example 180, 3-[2,5-difluoro-4-[[rac-(3S,6R)-3-methyl-1,1-dioxo-6-phenyl-thiazinan-2-yl]methyl]phenyl]-1-methyl-3-(pyrazin-2-yloxymethyl)cyclobutanol] |
| 7.1 | C[C@H]1CC[C@H](c2ccccc2)S(=O)(=O)N1Cc1cc(F)c([C@]2(c3n[nH]c(=O)o3)C[C@@H](CC#N)C2)cc1F [Example 152, cis 2-[3-[2,5-difluoro-4-[[(3S,6R)-3-methyl-1,1-dioxo-6-phenyl-thiazinan-2-yl]methyl]phenyl]-3-(2-oxo-3H-1,3,4-oxadiazol-5-yl)cyclobutyl]acetonitrile] |
| 114 | Cc1nnc(C2(c3ccc(CN4[C@@H](C)CC[C@H](c5ccccc5)S4(=O)=O)c(F)c3)CCOCC2)[nH]1 [Example 47, (3S,6R)-2-[[2-fluoro-4-[4-(5-methyl-4H-1,2,4-triazol-3-yl)tetrahydropyran-4-yl]phenyl]methyl]-3-methyl-6-phenyl-thiazinane 1,1-dioxide] |
| 4.6 | Cc1cc(CNC2(c3ccc(CN4[C@@H](C)CC[C@H](c5ccccc5)S4(=O)=O)c(F)c3)CCOCC2)no1 [Example 76, 4-[3-fluoro-4-[[(3S,6R)-3-methyl-1,1-dioxo-6-phenyl-thiazinan-2-yl]methyl]phenyl]-N-[(5-methylisoxazol-3-yl)methyl]tetrahydropyran-4-amine] |
| 47.4 | C[C@H]1CC[C@H](c2ccccc2)S(=O)(=O)N1Cc1cc(F)c(C2(C(=O)NCC3COC3)CCOCC2)cc1F [Example 346, 4-[2,5-difluoro-4-[[(3S,6R)-3-methyl-1,1-dioxo-6-phenyl-thiazinan-2-yl]methyl]phenyl]-N-(oxetan-3-ylmethyl)tetrahydropyran-4-carboxamide] |
| 180 | C[C@H]1CC[C@H](c2ccccc2)S(=O)(=O)N1Cc1cc(F)c([C@]2(c3n[nH]c(=O)o3)C[C@](C)(N)C2)cc1F (racemic) [Example 173, 5-[3-amino-1-[2,5-difluoro-4-[[rac-(3S,6R)-3-methyl-1,1-dioxo-6-phenyl-thiazinan-2-yl]methyl]phenyl]-3-methyl-cyclobutyl]-3H-1,3,4-oxadiazol-2-one; hydrochloride] |
| 4.3 | C[C@H]1CC[C@H](c2ccccc2)S(=O)(=O)N1Cc1cc(F)c([C@]2(c3n[nH]c(=O)o3)C[C@@](O)(C3CC3)C2)cc1F [Example 142, trans 5-[3-cyclopropyl-1-[2,5-difluoro-4-[[(3S,6R)-3-methyl-1,1-dioxo-6-phenyl-thiazinan-2-yl]methyl]phenyl]-3-hydroxy-cyclobutyl]-3H-1,3,4-oxadiazol-2-one] |
| 2.9 | C[C@H]1CC[C@H](c2ccccc2)S(=O)(=O)N1Cc1cc(F)c(C2(NCc3ccn[nH]3)CCOCC2)cc1F [Example 73, 4-[2,5-difluoro-4-[[(3S,6R)-3-methyl-1,1-dioxo-6-phenyl-thiazinan-2-yl]methyl]phenyl]-N-(1H-pyrazol-5-ylmethyl)tetrahydropyran-4-amine] |
| 8.8 | C[C@H]1CC[C@H](c2ccccc2)S(=O)(=O)N1Cc1cc(F)c(C2(N(C)Cc3cocn3)CCOCC2)cc1F [Example 81, 4-[2,5-difluoro-4-[[(3S,6R)-3-methyl-1,1-dioxo-6-phenyl-thiazinan-2-yl]methyl]phenyl]-N-methyl-N-(oxazol-4-ylmethyl)tetrahydropyran-4-amine] |
| 6900 | C[C@H]1CC[C@H](c2ccccc2)S(=O)(=O)N1Cc1cc(F)c([C@]2(CN3C(=O)CNC3=O)C[C@](C)(O)C2)cc1F (racemic) [Example 179, 3-[[1-[2,5-difluoro-4-[[rac-(3S,6R)-3-methyl-1,1-dioxo-6-phenyl-thiazinan-2-yl]methyl]phenyl]-3-hydroxy-3-methyl-cyclobutyl]methyl]imidazolidine-2,4-dione] |
| 77.1 | C[C@H]1CC[C@H](c2ccccc2)S(=O)(=O)N1Cc1ccc(C2(N(C)Cc3nnc[nH]3)CCOCC2)cc1F [Example 79, 4-[3-fluoro-4-[[(3S,6R)-3-methyl-1,1-dioxo-6-phenyl-thiazinan-2-yl]methyl]phenyl]-N-methyl-N-(4H-1,2,4-triazol-3-ylmethyl)tetrahydropyran-4-amine] |
| 83.3 | C[C@H]1CC[C@H](c2ccccc2)S(=O)(=O)N1Cc1ccc(C2(N3C=NC(=O)/C3=C\O)CCOCC2)cc1F [Example 69, (5E)-1-[4-[3-fluoro-4-[[(3S,6R)-3-methyl-1,1-dioxo-6-phenyl-thiazinan-2-yl]methyl]phenyl]tetrahydropyran-4-yl]-5-(hydroxymethylene)imidazol-4-one] |
| 2.7 | C[C@H]1CC[C@H](c2ccccc2)S(=O)(=O)N1Cc1cc(F)c(C2(c3n[nH]c(=O)o3)CC(F)(F)C2)cc1F [Example 126, 5-[1-[2,5-difluoro-4-[[(3S,6R)-3-methyl-1,1-dioxo-6-phenyl-thiazinan-2-yl]methyl]phenyl]-3,3-difluoro-cyclobutyl]-3H-1,3,4-oxadiazol-2-one] |
| 5.1 | C[C@H]1CC[C@H](c2ccccc2)S(=O)(=O)N1Cc1cc(F)c(C2(NC(=O)c3cc(=O)[nH]o3)COC2)cc1F [Example 106, N-[3-[2,5-difluoro-4-[[(3S,6R)-3-methyl-1,1-dioxo-6-phenyl-thiazinan-2-yl]methyl]phenyl]oxetan-3-yl]-3-oxo-isoxazole-5-carboxamide] |
| 56.6 | C[C@H]1CC[C@H](c2ccccc2)S(=O)(=O)N1Cc1cc(F)c(C2(NCC3COC(=O)N3)COC2)cc1F (stereo partly drawn) [Example 125, 4-[[[3-[2,5-difluoro-4-[[(3S,6R)-3-methyl-1,1-dioxo-6-phenyl-thiazinan-2-yl]methyl]phenyl]oxetan-3-yl]amino]methyl]oxazolidin-2-one] |
| 37.9 | C[C@H]1CC[C@H](c2ccccc2)S(=O)(=O)N1Cc1cc(F)c([C@]2(c3nnc[nH]3)C[C@H](O)C2)cc1F [Example 116, 3-[2,5-difluoro-4-[[(3S,6R)-3-methyl-1,1-dioxo-6-phenyl-thiazinan-2-yl]methyl]phenyl]-3-(4H-1,2,4-triazol-3-yl)cyclobutanol] |
| 19.2 | C[C@H]1CC[C@H](c2ccccc2)S(=O)(=O)N1Cc1cc(F)c(C2(c3nnc(N)o3)CCOCC2)cc1F [Example 61, 5-[4-[2,5-difluoro-4-[[(3S,6R)-3-methyl-1,1-dioxo-6-phenyl-thiazinan-2-yl]methyl]phenyl]tetrahydropyran-4-yl]-1,3,4-oxadiazol-2-amine] |
| 8.7 | C[C@H]1CC[C@H](c2ccccc2)S(=O)(=O)N1Cc1cc(F)c([C@]2(c3n[nH]c(=O)o3)C[C@H](CC#N)C2)cc1F [Example 153, trans 2-[3-[2,5-difluoro-4-[[(3S,6R)-3-methyl-1,1-dioxo-6-phenyl-thiazinan-2-yl]methyl]phenyl]-3-(2-oxo-3H-1,3,4-oxadiazol-5-yl)cyclobutyl]acetonitrile] |
| 28.6 | C[C@H]1CC[C@H](c2ccccc2)S(=O)(=O)N1Cc1cc(F)c(C2(c3nnc[nH]3)CCOCC2)cc1F [Example 50, (3S,6R)-2-[[2,5-difluoro-4-[4-(4H-1,2,4-triazol-3-yl)tetrahydropyran-4-yl]phenyl]methyl]-3-methyl-6-phenyl-thiazinane 1,1-dioxide] |
| 87.7 | C[C@H]1CC[C@H](c2ccccc2)S(=O)(=O)N1Cc1ccc(C2(n3cnnc3)CCOCC2)cc1F [Example 45, (3S,6R)-2-[[2-fluoro-4-[4-(1,2,4-triazol-4-yl)tetrahydropyran-4-yl]phenyl]methyl]-3-methyl-6-phenyl-thiazinane 1,1-dioxide] |
| 38.9 | C[C@H]1CC[C@H](c2ccccc2)S(=O)(=O)N1Cc1ccc(C2(NCc3ccc(=O)[nH]c3)CCOCC2)cc1F [Example 68, 5-[[[4-[3-fluoro-4-[[(3S,6R)-3-methyl-1,1-dioxo-6-phenyl-thiazinan-2-yl]methyl]phenyl]tetrahydropyran-4-yl]amino]methyl]-1H-pyridin-2-one] |
| 118 | C[C@H]1CC[C@H](c2ccccc2)S(=O)(=O)N1Cc1ccc(C2(Cn3cnnc3)CCOCC2)cc1F [Example 40, (3S,6R)-2-[[2-fluoro-4-[4-(1,2,4-triazol-4-ylmethyl)tetrahydropyran-4-yl]phenyl]methyl]-3-methyl-6-phenyl-thiazinane 1,1-dioxide] |
| 39 | C[C@H]1CC[C@H](c2ccccc2)S(=O)(=O)N1Cc1cc(F)c([C@]2(c3n[nH]c(=O)o3)C[C@@H]2CO)cc1F [Example 150, 5-[(1S,2S)-1-[2,5-difluoro-4-[[(3S,6R)-3-mcthyl-1,1-dioxo-6-phenyl-thiazinan-2-yl]methyl]phenyl]-2-(hydroxymethyl)cyclopropyl]-3H-1,3,4-oxadiazol-2-one] |
| 3.6 | C[C@H]1CC[C@H](c2ccccc2)S(=O)(=O)N1Cc1cc(F)c(C2(c3nnc[nH]3)CC(F)(F)C2)cc1F [Example 114, (3S,6R)-2-[[4-[3,3-difluoro-1-(4H-1,2,4-triazol-3-yl)cyclobutyl]-2,5-difluoro-phenyl]methyl]-3-methyl-6-phenyl-thiazinane 1,1-dioxide] |
| 113 | C[C@H]1CC[C@H](c2ccccc2)S(=O)(=O)N1Cc1ccc(C2(n3cn[nH]c3=O)CCOCC2)cc1F [Example 70, 4-[4-[3-fluoro-4-[[(3S,6R)-3-methyl-1,1-dioxo-6-phenyl-thiazinan-2-yl]methyl]phenyl]tetrahydropyran-4-yl]-1H-1,2,4-triazol-5-one] |
| 5 | Cc1cc(CNC2(c3cc(F)c(CN4[C@@H](C)CC[C@H](c5ccccc5)S4(=O)=O)cc3F)CCOCC2)no1 [Example 86, 4-[2,5-difluoro-4-[[(3S,6R)-3-methyl-1,1-dioxo-6-phenyl-thiazinan-2-yl]methyl]phenyl]-N-[(5-methylisoxazol-3-yl)methyl]tetrahydropyran-4-amine] |
